Experimental data as given in patent publication US20230079819A1, “COMPOUNDS AND USES THEREOF” (Foghorn Therapeutics Inc., priority 2019, published 2023).

Tests used:
BRM = target: T1, BRM (Homo sapiens, UniProt P51531); assay: ATPase catalytic activity of BRM, ADP-Glo in vitro biochemical assay; conditions: ATPase catalytic activity, 30 nM BRM, 400 μM ATP, read-out: BRM IP50
T1 construct: made in house; host or cells: High Five insect cells

BRG-1 = target: T2, BRG-1 (Homo sapiens, UniProt P51532); assay: ATPase catalytic activity of BRG-1, ADP-Glo in vitro biochemical assay; conditions: ATPase catalytic activity, 30 nM BRG-1, 400 μM ATP, read-out: BRG1 IP50
T2 construct: made in house; host or cells: High Five insect cells
T2 sequence (P51532 whole entry): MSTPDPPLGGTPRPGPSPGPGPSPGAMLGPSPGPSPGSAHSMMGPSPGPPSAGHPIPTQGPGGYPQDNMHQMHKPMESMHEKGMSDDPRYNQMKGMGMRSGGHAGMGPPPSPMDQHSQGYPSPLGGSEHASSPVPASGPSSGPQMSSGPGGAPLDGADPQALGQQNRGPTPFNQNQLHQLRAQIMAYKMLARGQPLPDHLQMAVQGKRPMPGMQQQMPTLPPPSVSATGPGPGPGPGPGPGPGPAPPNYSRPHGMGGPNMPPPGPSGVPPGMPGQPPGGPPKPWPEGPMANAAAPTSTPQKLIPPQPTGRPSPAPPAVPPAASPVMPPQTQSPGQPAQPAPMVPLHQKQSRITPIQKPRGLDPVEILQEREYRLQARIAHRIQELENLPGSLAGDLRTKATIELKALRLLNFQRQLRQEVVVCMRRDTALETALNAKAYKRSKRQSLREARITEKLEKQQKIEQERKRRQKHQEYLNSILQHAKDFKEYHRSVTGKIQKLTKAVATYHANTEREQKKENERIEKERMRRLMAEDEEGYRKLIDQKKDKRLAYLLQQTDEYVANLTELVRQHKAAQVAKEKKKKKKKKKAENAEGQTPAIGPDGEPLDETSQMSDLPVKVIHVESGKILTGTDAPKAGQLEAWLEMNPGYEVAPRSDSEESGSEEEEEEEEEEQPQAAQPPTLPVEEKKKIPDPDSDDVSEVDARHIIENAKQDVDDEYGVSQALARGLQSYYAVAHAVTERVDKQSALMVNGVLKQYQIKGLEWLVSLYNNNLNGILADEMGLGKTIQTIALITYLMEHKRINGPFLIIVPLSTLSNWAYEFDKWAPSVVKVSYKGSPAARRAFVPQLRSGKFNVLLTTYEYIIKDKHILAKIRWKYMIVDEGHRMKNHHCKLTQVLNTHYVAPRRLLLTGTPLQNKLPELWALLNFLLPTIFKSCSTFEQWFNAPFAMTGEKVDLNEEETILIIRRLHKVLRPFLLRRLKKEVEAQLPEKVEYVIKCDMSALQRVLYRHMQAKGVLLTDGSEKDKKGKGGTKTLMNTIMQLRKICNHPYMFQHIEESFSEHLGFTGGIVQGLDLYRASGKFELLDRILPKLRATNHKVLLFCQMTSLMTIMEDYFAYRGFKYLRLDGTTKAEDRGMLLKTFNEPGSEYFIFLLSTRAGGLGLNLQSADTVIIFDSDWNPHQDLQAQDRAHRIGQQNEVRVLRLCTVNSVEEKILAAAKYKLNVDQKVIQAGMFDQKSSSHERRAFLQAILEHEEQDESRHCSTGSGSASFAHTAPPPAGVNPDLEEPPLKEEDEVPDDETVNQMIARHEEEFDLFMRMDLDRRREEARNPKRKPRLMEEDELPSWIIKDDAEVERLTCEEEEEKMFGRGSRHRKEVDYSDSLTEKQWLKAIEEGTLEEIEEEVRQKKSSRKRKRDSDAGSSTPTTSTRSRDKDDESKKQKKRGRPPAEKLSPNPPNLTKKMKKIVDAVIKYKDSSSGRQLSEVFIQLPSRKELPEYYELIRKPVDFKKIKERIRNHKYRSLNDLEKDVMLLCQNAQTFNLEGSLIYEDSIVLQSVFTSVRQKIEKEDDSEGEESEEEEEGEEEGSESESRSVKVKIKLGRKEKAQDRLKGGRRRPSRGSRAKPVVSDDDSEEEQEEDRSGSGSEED

T1 sequence (P51531 whole entry): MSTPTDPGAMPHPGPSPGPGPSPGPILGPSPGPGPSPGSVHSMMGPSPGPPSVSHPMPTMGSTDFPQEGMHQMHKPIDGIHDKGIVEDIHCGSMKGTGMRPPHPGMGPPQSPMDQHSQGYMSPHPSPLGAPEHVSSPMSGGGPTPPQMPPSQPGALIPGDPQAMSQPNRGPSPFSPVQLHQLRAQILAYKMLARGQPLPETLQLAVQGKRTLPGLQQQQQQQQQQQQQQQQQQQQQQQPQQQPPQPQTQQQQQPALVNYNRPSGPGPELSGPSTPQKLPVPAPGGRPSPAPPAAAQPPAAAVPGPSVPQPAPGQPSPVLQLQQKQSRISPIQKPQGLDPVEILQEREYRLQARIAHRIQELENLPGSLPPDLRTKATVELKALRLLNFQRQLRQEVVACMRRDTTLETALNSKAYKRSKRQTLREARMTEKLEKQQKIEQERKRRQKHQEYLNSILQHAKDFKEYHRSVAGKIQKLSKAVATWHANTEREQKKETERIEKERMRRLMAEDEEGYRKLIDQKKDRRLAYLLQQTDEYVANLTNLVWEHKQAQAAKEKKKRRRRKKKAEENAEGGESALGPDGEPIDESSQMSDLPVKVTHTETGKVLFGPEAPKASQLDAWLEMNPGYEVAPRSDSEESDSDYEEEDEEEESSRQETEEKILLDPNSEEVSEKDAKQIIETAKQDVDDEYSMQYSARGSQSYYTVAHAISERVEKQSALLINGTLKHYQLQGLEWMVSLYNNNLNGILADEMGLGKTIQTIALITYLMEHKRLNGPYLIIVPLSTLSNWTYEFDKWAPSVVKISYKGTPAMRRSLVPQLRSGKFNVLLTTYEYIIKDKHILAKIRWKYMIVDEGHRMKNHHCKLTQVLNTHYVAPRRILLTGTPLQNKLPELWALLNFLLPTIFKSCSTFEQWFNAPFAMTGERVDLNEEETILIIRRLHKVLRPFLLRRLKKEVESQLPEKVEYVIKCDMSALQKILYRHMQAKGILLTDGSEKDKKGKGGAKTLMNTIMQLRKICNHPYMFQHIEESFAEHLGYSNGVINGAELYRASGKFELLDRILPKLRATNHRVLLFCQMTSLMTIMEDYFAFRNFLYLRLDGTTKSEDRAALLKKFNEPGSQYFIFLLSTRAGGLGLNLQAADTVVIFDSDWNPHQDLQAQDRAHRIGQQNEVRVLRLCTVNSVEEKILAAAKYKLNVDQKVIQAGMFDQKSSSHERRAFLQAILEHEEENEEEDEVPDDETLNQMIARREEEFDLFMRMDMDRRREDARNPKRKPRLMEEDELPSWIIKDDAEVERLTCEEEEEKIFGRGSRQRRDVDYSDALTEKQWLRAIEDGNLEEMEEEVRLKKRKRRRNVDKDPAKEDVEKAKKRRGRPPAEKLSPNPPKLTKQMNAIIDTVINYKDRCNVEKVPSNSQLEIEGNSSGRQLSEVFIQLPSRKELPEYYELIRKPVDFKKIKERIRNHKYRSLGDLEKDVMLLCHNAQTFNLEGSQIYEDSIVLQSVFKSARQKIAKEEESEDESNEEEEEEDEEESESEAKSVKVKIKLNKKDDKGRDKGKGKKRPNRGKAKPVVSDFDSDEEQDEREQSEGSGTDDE

Compound | IC50 (BRM) | IC50 (BRG-1)
CS(=O)(=O)n1ccc(C(=O)NCC(=O)Nc2nc(-c3cccc(-c4ccnc(CC(=O)O)c4)c3)cs2)c1 [Compound 421, Sodium 2-(4-(3-(2-(2-(1-(methylsulfonyl)-1H-pyrrole-3-carboxamido)acetamido)thiazol-4-yl)phenyl)pyridin-2-yl)acetate] | > 10 nM | > 10 nM
C[C@@H]1CN(c2cccc(-c3csc(NC(=O)CNC(=O)c4ccn(S(C)(=O)=O)c4)n3)c2)CC[C@H]1O [Compound 423] | < 10 nM | < 10 nM
CC(C)(O)C#Cc1cccc(-c2csc(NC(=O)CNC(=O)c3ccn(S(C)(=O)=O)c3)n2)c1 [Compound 426] | > 10 nM | > 10 nM
COC[C@H](NC(=O)c1ccn(S(C)(=O)=O)c1)C(=O)Nc1nc(-c2ccc3ccn(C)c(=O)c3c2)cs1 [Compound 430] | < 10 nM | < 10 nM
CC(C)(N)Cn1ccc(-c2cccc(-c3csc(NC(=O)CNC(=O)c4ccn(C(C)(C)C)c4)n3)c2)n1 [Compound 434] | > 10 nM | > 10 nM
CN1CCn2nc(-c3cccc(-c4csc(NC(=O)CNC(=O)c5ccn(C(C)(C)C)c5)n4)c3)cc2C1=O [Compound 437] | > 100 nM | > 100 nM
COC[C@H](NC(=O)c1ccn(S(C)(=O)=O)c1)C(=O)Nc1nc(-c2cccc(-c3ccnc(Cl)c3)c2)cs1 [Compound 438] | < 10 nM | < 10 nM
CC(C)(C)n1ccc(C(=O)NCC(=O)Nc2nc(-c3cccc(N4CCN(C5COC5)CC4)n3)cs2)c1 [Compound 440] | > 10 nM | > 10 nM
CS(=O)(=O)n1ccc(C(=O)NCC(=O)Nc2nc(-c3cccc(N4CC5CCC(C4)O5)c3)cs2)c1 [Compound 445] | > 10 nM | > 100 nM

Now from value to compound:

IC50 (BRM) | IC50 (BRG-1) | Compound
> 10 nM | > 10 nM | CS(=O)(=O)n1ccc(C(=O)NCC(=O)Nc2nc(-c3cccc([C@H]4CCCOC4)c3)cs2)c1 [Compound 420, 1-methylsulfonyl-N-[2-oxo-2-[[4-[3-[(3R)-tetrahydropyran-3-yl]phenyl]thiazol-2-yl]amino]ethyl]pyrrole-3-carboxamide]
> 10 nM | > 10 nM | Cc1cc(-c2cccc(-c3csc(NC(=O)CNC(=O)c4ccn(C(C)(C)C)c4)n3)c2)no1 [Compound 425]
> 10 nM | > 10 nM | COCC1CN(c2cccc(-c3csc(NC(=O)CNC(=O)c4ccn(S(C)(=O)=O)c4)n3)c2)C1 [Compound 427]
> 10 nM | > 10 nM | CC(C)(C)n1ccc(C(=O)NCC(=O)Nc2nc(-c3cccc(C4CCCCO4)c3)cs2)c1 (stereo not drawn) [Compound 432]
> 10 nM | > 10 nM | CN1CCn2nc(-c3cccc(-c4csc(NC(=O)CNC(=O)c5ccn(S(C)(=O)=O)c5)n4)c3)cc2C1=O [Compound 433]
< 10 nM | < 10 nM | CNC(=O)C1(c2cc(-c3cccc(-c4csc(NC(=O)CNC(=O)c5ccn(S(C)(=O)=O)c5)n4)c3)ccn2)CC1 [Compound 435]
> 10 nM | > 10 nM | COC[C@H](NC(=O)c1ccn(S(C)(=O)=O)c1)C(=O)Nc1nc(-c2cccc(-c3cc(C)no3)c2)cs1 [Compound 436]
< 10 nM | < 10 nM | CN(C)C(=O)C1(c2cc(-c3cccc(-c4csc(NC(=O)CNC(=O)c5ccn(S(C)(=O)=O)c5)n4)c3)ccn2)CC1 [Compound 439]
< 10 nM | < 10 nM | CC(=O)NCCOc1cc(-c2cccc(-c3csc(NC(=O)CNC(=O)c4ccn(S(C)(=O)=O)c4)n3)c2)ccn1 [Compound 441]
< 10 nM | < 10 nM | CS(=O)(=O)n1ccc(C(=O)NCC(=O)Nc2nc(-c3cccc(-c4ccnc(OCCN)c4)c3)cs2)c1 [Compound 442]
< 10 nM | > 10 nM | COC[C@H](NC(=O)c1ccn(S(C)(=O)=O)c1)C(=O)Nc1nc(-c2cccc(-c3ccnc(OC)c3)c2)cs1 [Compound 443]
> 100 nM | > 100 nM | COC[C@@H](NC(=O)c1ccn(S(C)(=O)=O)c1)C(=O)Nc1nc(-c2cccc(-c3ccnc(OC)c3)c2)cs1 [Compound 444]
